The source of these data is patent publication US20030144352A1, “Antimuscarinic aerosol” (priority 2001, published 2003).

For series [1] the following is noted: human serum; Nilvebrant et al., Life Sciences 60 (1997); cited from earlier work.
Series [2] is described as follows: Plasma concentration of tolterodine after aerosol administration (inhalation) in mice. It counts as in vivo. Here is the method: Female BALB/C mice, weight range 19-22 g, were obtained from Charles River Laboratories (Kingston, N.C.). They received food and water ad libitum. All procedures in these studies were in compliance with the Animal Welfare Act Regulation, 9CFR Parts 1 and 2, Publication (NIH) 85-23, 1985.
This nebulizer generates a mean aerosol particle size of 1.3 microns at a rate of approximately 0.25 ml/minute.
Blood samples were taken via cardiac puncture under isoflurane anesthesia at 5, 15, 30, 60, 120, and 240 minutes after in treatment and at 2.5, 5, 15, 30, 60, and 120 minutes after aerosol drug treatment.
The samples were collected in tubes containing EDTA and centrifuged at 12000×g for four minutes. Plasma was removed and stored at −70° C. until assay.
Plasma samples were extracted via a liquid/liquid extraction technique. […] Chromatographically, the analyte and internal standard were resolved on a Zorbax ACE Phenyl column (2.1×50mm) using a gradient elution. The total analysis time was 4 minutes with a limit of quantization of 100 pg/mL.
Female BALB/c mice, weight range 19-22 g, were obtained from Charles River Laboratories (Kingston, N.C.). They received food and water ad libitum. All procedures in these studies were in compliance with the Animal Welfare Act Regulation, 9CFR Parts 1 and 2, Publication (NIH) 85-23, 1985.
The duration of aerosol treatment was five minutes. Blood samples were collected via cardiac puncture at 2.5, 5, 15, 30, 60, and 120 minutes following the end of the drug nebulization period.
The samples from were collected in tubes containing EDTA and centrifuged at 12000×g for four minutes. Plasma was removed and stored at −70° C. until assay.

As to `CC(C)N(CC[C@H](c1ccccc1)c1cc(CO)ccc1O)C(C)C` [5-HM, 2-[(1R)-3-(diisopropylamino)-1-phenylpropyl]-4-(hydroxymethyl)phenol], the Fraction unbound in series [1] is listed as 36%.

As to `Cc1ccc(O)c([C@H](CCN(C(C)C)C(C)C)c2ccccc2)c1.O=C(O)C(O)C(O)C(=O)O` [tolterodine L-tartrate, (R)-N,N-diisopropyl-3-(2-hydroxy-5-methylphenyl)-3-phenylpropanamine L-tartrate], the Plasma levels result in series [2] (female BALB/c mice, inhalation of nebulized 0.1 mg/mL solution for five minutes, 2.5-120 minutes after nebulization) is given as “at or below-detection limits”. On to `Cc1ccc(O)c([C@H](CCN(C(C)C)C(C)C)c2ccccc2)c1` [tolterodine, 2-[(1R)-3-(diisopropylamino)-1-phenylpropyl]-4-methylphenol], for which, in series [2] (mice, aerosol administration (FIGS. 1 and 2)), the “Rise in tolterodine plasma concentration” value is “within a few minutes a distinct and instant rise”. Moreover, the “Absorption into the circulation” value in series [2] (mice, inhalation of nebulized solutions at 0.1, 0.5 or 1.0 mg/mL) was “rapidly absorbed into the circulation”. Also, the Fraction unbound in series [1] is 3.7%.
